The target of the assay is T1, Proteinase-activated receptor 2 (Homo sapiens, UniProt P55085).
T1 sequence (P55085 whole entry): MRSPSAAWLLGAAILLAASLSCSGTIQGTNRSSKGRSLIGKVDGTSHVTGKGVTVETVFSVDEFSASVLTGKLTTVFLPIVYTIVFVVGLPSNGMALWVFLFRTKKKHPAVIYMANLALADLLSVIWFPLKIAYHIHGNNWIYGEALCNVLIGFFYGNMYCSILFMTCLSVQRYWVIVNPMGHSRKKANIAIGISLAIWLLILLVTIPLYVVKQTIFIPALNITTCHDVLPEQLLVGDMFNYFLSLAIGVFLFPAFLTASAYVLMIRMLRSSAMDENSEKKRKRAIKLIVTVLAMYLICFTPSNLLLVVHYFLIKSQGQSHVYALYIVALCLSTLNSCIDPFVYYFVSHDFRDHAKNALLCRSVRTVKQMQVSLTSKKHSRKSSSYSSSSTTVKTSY
Description: Antagonist activity at PAR2 in human HT-29 cells assessed as inhibition of 2f-LIGRLO-NH2-stimulated intracellular calcium release preincubated for 30 mins followed by 2f-LIGRLO-NH2 stimulation measured for 60 sec by Fluo-3 AM dye based FLIPR assay.

With `CC[C@H](C)[C@H](NC(=O)[C@H](CC1CCCCC1)NC(=O)c1ccno1)C(=O)N1CCCC[C@H]1C(=O)NC(C)(C)C`, the IC50 worked out at 7.94 µM.
